These are literature values, as cited in patent US20060287500A1, “Method for synthesis of C2-symmetric diamino diol mediated by titanium complexes” (priority 2005, published 2006).

For one data set, the target named is FIV protease (Feline immunodeficiency virus, UniProt P16088). The settings on record: in vitro.
The target of a further data set is HIV protease (Human immunodeficiency virus type 1 group M subtype B, UniProt P04585). Particulars: in vitro.
In data set [1] the test system is HIV, SIV, FIV and many of the 150 different clinical mutant strains.
The subject of a further data set is FIV. Particulars: feline model.

pKi: −log10 of the molar value.

In the case of `CC(C)[C@H](NC(=O)[C@H](C)NC(=O)OCc1ccccc1)C(=O)N[C@@H](Cc1ccccc1)[C@@H](O)[C@H](O)[C@H](Cc1ccccc1)NC(=O)[C@@H](NC(=O)[C@H](C)NC(=O)OCc1ccccc1)C(C)C` [TL-3], the values for the negative logarithm of the Ki (pKi) on FIV protease and on HIV protease were 7.39 and 8.82, respectively. Besides, the “effectiveness against HIV, SIV, FIV and clinical mutant strains” value in data set [1] was “equally effective”. Further, the “drug resistance developing against the inhibitor” value in the data set on FIV is reported as “No evidence for drug resistance developing”.
